Test results as given in patent publication US9862717B2 (Merck Patent GmbH, priority 2014, dated 2018).

Molecular target: T1, CDK8/CycC (Homo sapiens, UniProt P49336)
T1 construct: purchased Invitrogen PV4402
Experiment: FRET based Lanthascreen binding competition assay for CDK8 inhibitory activity
Conditions: CDK8 co-expressed with CycC; class symbols; read-out: IC50
From the text: Biochemical Assay for CDK8 Inhibitory Activity FRET based Lanthascreen binding competition assay: A dye-labeled ATP competitive probe served as a FRET acceptor upon binding to CDK8 labeled with a strepavidin -Eu-chelate (via a biotinylated anti His antibody). The result was a fluorescence signal at 647 nm. In case this probe was competed by an inhibitor, such a signal cannot be generated any more. The CDK8 used for this assay was a protein co-expressed with CycC. The assay procedure for an assay in a 1536 well plate was performed according to the following: 2 μL CDK8/biotin-anti-His Ab/SA-Eu mix in Assay buffer were pipetted into the wells of a micro plate. 1 μL compound in 20 mM Hepes buffer/5% DMSO was added. The plate was shaken for 30 sec and incubated for 20 min at RT. 2 μL Alexa647-probe in assay buffer were added. The plate was shaken for 30 sec again and incubated for 60 min at RT in the dark. Then the plate was read out on a Perkin Elmer Envision (mode LANCE/TRF, excitation 340 nm emission 650 nm). […] The readouts were fitted to IC50 curves using Genedata Condoseo.

T1 sequence (P49336 whole entry): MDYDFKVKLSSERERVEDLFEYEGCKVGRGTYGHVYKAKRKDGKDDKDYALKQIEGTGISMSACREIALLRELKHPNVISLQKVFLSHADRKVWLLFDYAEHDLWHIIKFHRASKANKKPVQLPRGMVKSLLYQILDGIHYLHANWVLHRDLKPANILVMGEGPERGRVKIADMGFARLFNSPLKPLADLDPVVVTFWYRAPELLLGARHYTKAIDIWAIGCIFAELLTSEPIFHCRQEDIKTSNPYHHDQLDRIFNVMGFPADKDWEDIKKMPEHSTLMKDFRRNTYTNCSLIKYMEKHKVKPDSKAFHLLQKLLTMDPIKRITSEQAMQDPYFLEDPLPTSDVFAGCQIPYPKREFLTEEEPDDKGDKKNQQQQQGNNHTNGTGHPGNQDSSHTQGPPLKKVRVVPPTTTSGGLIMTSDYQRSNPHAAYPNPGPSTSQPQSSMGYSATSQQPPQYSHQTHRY
T1 sequence (P24863 whole entry partner): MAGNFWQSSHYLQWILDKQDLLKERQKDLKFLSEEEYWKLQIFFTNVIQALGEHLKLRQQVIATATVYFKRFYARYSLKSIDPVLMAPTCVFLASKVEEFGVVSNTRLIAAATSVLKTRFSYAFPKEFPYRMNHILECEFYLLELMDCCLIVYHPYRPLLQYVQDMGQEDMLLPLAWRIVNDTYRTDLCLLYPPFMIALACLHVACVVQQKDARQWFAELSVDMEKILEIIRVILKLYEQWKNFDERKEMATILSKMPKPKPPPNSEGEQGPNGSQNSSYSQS

Row | IC50 [µM] | SMILES
1 | 0.01 to 0.1 | O=C(c1cnc2[nH]nc(C(F)(F)F)c2c1)N1CCCC1c1ccc(Cl)cc1 (racemic) [compound 177, [2-(4-Chloro-phenyl)-pyrrolidin-1-yl]-(3-trifluoromethyl-1H-pyrazolo[3,4-b]pyridin-5-yl)-methanone]
2 | < 0.01 | Cc1n[nH]c2ncc(C(=O)N3CCCC3c3ccc(C(C)C)cc3)cc12 (racemic) [compound 192, [2-(4-Isopropyl-phenyl)-pyrrolidin-1-yl]-(3-methyl-1H-pyrazolo[3,4-b]pyridin-5-yl)-methanone]
3 | < 0.01 | O=C(c1cnc2[nH]nc(C(F)(F)F)c2c1)N1CCC[C@H]1c1ccc(Cl)cc1 (stereo in doubt) [compound 180, [(S)-2-(4-Chloro-phenyl)-pyrrolidin-1-yl]-(3-trifluoromethyl-1H-pyrazolo[3,4-b]pyridin-5-yl)-methanone]
4 | 0.1 to 1 | O=C(c1cnc2[nH]nc(C(F)(F)F)c2c1)N1CCC[C@@H]1c1ccc(Cl)cc1 (stereo in doubt) [compound 181, [(R)-2-(4-Chloro-phenyl)-pyrrolidin-1-yl]-(3-trifluoromethyl-1H-pyrazolo[3,4-b]pyridin-5-yl)-methanone]
5 | < 0.01 | Cc1n[nH]c2ncc(C(=O)N3CCCC3c3ccc(Br)cc3)cc12 (centres unmarked) [compound 1, [2-(4-Bromo-phenyl)-pyrrolidin-1-yl]-(3-methyl-1H-pyrazolo[3,4-b]pyridin-5-yl)-methanone]
6 | < 0.01 | Cc1n[nH]c2ncc(C(=O)N3CCC[C@H]3c3ccc(Br)cc3)cc12 [compound 2, [(S)-2-(4-Bromo-phenyl)-pyrrolidin-1-yl]-(3-methyl-1H-pyrazolo[3,4-b]pyridin-5-yl)-methanone]
7 | 0.1 to 1 | Cc1n[nH]c2ncc(C(=O)N3CCC[C@@H]3c3ccc(Br)cc3)cc12 [compound 3, [(R)-2-(4-Bromo-phenyl)-pyrrolidin-1-yl]-(3-methyl-1H-pyrazolo[3,4-b]pyridin-5-yl)-methanone]

Further lines, the compound ahead of its results:

Row | SMILES | IC50 [µM]
8 | CCCc1n[nH]c2ccc(C(=O)N3CCCC3c3ccc(Br)cc3)cc12 (racemic) [compound 4, [2-(4-Bromo-phenyl)-pyrrolidin-1-yl]-(3-propyl-1H-indazol-5-yl)-methanone] | < 0.01
9 | O=C(c1ccc2[nH]ncc2c1)N1CCCC1c1ccc(Br)cc1 (racemic) [compound 154] | 0.01 to 0.1
10 | CC(C)c1ccc(C2CCCN2C(=O)c2ccc3[nH]nc(N)c3c2)cc1 (racemic) [compound 191, (3-Amino-1H-indazol-5-yl)-[2-(4-isopropyl-phenyl)-pyrrolidin-1-yl]-methanone] | 0.01 to 0.1
11 | Cc1n[nH]c2ncc(C(=O)N3CCC(O)(c4ccccc4)C3)cc12 (racemic) [compound 193, (3-Hydroxy-3-phenyl-pyrrolidin-1-yl)-(3-methyl-1H-pyrazolo[3,4-b]pyridin-5-yl)-methanone] | 1 to 10
12 | CC(=O)N[C@@H]1CN(C(=O)c2ccc3[nH]nc(N)c3c2)C[C@H]1c1ccc(Cl)cc1 (racemic) [compound 263, N-[(3S,4R)-1-(3-Amino-1H-indazole-5-carbonyl)-4-(4-chloro-phenyl)-pyrrolidin-3-yl]-acetamide (racemic)] | 0.01 to 0.1
13 | CC(=O)N[C@@H]1CN(C(=O)c2cnc3[nH]nc(C)c3c2)C[C@H]1c1ccc(Cl)cc1 (racemic) [compound 264, N-[(3S,4R)-4-(4-Chloro-phenyl)-1-(3-methyl-1H-pyrazolo[3,4-b]pyridine-5-carbonyl)-pyrrolidin-3-yl]-acetamide (racemic)] | 0.01 to 0.1
14 | Nc1n[nH]c2ccc(C(=O)N3CCCCC3Cc3ccccc3)cc12 (stereo in doubt) [compound 86, (3-Amino-1H-indazol-5-yl)-((S)-2-benzyl-piperidin-1-yl)-methanone] | 0.01 to 0.1
15 | Nc1n[nH]c2ccc(C(=O)N3CCCCC3Cc3ccccc3)cc12 (stereo in doubt) [compound 89, (3-Amino-1H-indazol-5-yl)-((R)-2-benzyl-piperidin-1-yl)-methanone] | 0.1 to 1
16 | Cc1n[nH]c2ncc(C(=O)N3CC[C@H](C)C3c3ccc(C(F)(F)F)cc3)cc12 (stereo in doubt) [compound 171, (3-Methyl-1H-pyrazolo[3,4-b]pyridin-5-yl)-[(2S,3S)-3-methyl-2-(4-trifluoromethyl-phenyl)-pyrrolidin-1-yl]-methanone] | 0.01 to 0.1
17 | Cc1n[nH]c2ncc(C(=O)N3CCC(O)(c4ccccc4)C3)cc12 (stereo in doubt) [compound 199, ((R)-3-Hydroxy-3-phenyl-pyrrolidin-1-yl)-(3-methyl-1H-pyrazolo[3,4-b]pyridin-5-yl)-methanone] | 1 to 10
18 | CCCc1n[nH]c2ccc(C(=O)N3CCC[C@H]3c3ccc(Br)cc3)cc12 [compound 5, [(S)-2-(4-Bromo-phenyl)-pyrrolidin-1-yl]-(3-propyl-1H-indazol-5-yl)-methanone] | < 0.01
19 | CCCc1n[nH]c2ccc(C(=O)N3CCC[C@@H]3c3ccc(Br)cc3)cc12 [compound 6, [(R)-2-(4-bromo-phenyl)-pyrrolidin-1-yl]-(3-propyl-1H-indazol-5-yl)-methanone] | 0.1 to 1
20 | CCCc1n[nH]c2ccc(C(=O)N3CCCC3c3ccc(Cl)cc3)cc12 (centres unmarked) [compound 9, [2-(4-Chloro-phenyl)-pyrrolidin-1-yl]-(3-propyl-1H-indazol-5-yl)-methanone] | < 0.01
21 | CCCc1n[nH]c2ccc(C(=O)N3CCC[C@H]3c3ccc(Cl)cc3)cc12 [compound 11, [(S)-2-(4-Chloro-phenyl)-pyrrolidin-1-yl]-(3-propyl-1H-indazol-5-yl)-methanone] | < 0.01
22 | CCCc1n[nH]c2ccc(C(=O)N3CCC[C@@H]3c3ccc(Cl)cc3)cc12 [compound 12, [(R)-2-(4-Chloro-phenyl)-pyrrolidin-1-yl]-(3-propyl-1H-indazol-5-yl)-methanone] | 0.1 to 1
23 | Cc1n[nH]c2ncc(C(=O)N3CCCCC3c3ccc(F)cc3)cc12 (centres unmarked) [compound 15, [2-(4-Fluoro-phenyl)-piperidin-1-yl]-(3-methyl-1H-pyrazolo[3,4-b]pyridin-5-yl)-methanone] | 0.01 to 0.1
24 | Cc1n[nH]c2ncc(C(=O)N3CCCC[C@H]3c3ccc(F)cc3)cc12 [compound 17, [(S)-2-(4-Fluoro-phenyl)-piperidin-1-yl]-(3-methyl-1H-pyrazolo[3,4-b]pyridin-5-yl)-methanone] | 0.01 to 0.1
25 | Cc1n[nH]c2ncc(C(=O)N3CCCCC3c3ccccc3)cc12 (centres unmarked) [compound 18, (3-Methyl-1H-pyrazolo[3,4-b]pyridin-5-yl)-(2-phenyl-piperidin-1-yl)-methanone] | 0.01 to 0.1

Same assay, conditions: IC50 [μM], CDK8 co-expressed with CycC; class symbols

Row | IC50 [µM] | SMILES
26 | < 0.01 | Cc1n[nH]c2ncc(C(=O)N3CCCC3c3ccc(Cl)cc3)cc12 (racemic) [compound 10, [2-(4-Chloro-phenyl)-pyrrolidin-1-yl]-(3-methyl-1H-pyrazolo[3,4-b]pyridin-5-yl)-methanone]
27 | < 0.01 | Nc1n[nH]c2ccc(C(=O)N3CCCC3c3ccc(Cl)cc3)cc12 (racemic) [compound 78, (3-Amino-1H-indazol-5-yl)-[2-(4-chloro-phenyl)-pyrrolidin-1-yl]-methanone]
28 | < 0.01 | Cc1n[nH]c2ncc(C(=O)N3CCC[C@H]3c3ccc(Cl)cc3)cc12 [compound 13]
29 | 0.1 to 1 | Cc1n[nH]c2ncc(C(=O)N3CCC[C@@H]3c3ccc(Cl)cc3)cc12 [compound 14, [(R)-2-(4-Chloro-phenyl)-pyrrolidin-1-yl]-(3-methyl-1H-pyrazolo[3,4-b]pyridin-5-yl)-methanone]
